Among the data in US12172990B2 (Constellation Pharmaceuticals, Inc., priority 2018, dated 2024) are IC50 values, retold here.

For one test, the target named is full length human TREX1 (Homo sapiens (Human), UniProt Q9NSU2). Description: TREX1 Biochemical Assay (fluorescence assay measuring degradation of dsDNA substrate). To be noted: 150 pM TREX1, 60 nM dsDNA substrate, 25 minutes at room temperature. The procedure, abridged:
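His-Tev-tagged full-length human TREX1 expressed in E. coli, 150 pM final, with 60 nM TEX615/quencher-labelled 9-mer dsDNA in Tris pH 7.4, NaCl, DTT, BSA, Tween-20, MgCl2 and 1.0% DMSO; 25 min at room temperature, EDTA-quenched. Fluorescence 615 nm (excitation 570 nm); 10-point IC50 by four-parameter fit against pre-quenched and no-inhibitor controls.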

In test [1] the target is human TREX2 (residues M44-A279) (Homo sapiens (Human), UniProt Q9BQ50). Description: TREX2 Biochemical Assay (fluorescence assay measuring degradation of dsDNA substrate). To be noted: 2.5 nM TREX2, 60 nM dsDNA substrate, 25 minutes at room temperature. The procedure, abridged:
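Final conditions: 2.5 nM His-Tev-tagged TREX2 (E. coli-expressed), 60 nM fluorophore/quencher-labelled dsDNA, 50 mM Tris pH 7.4, 150 mM NaCl, 100 mM MgCl2, 1% DMSO; 10-point compound dose-response. Incubated 25 min at room temperature, then EDTA-quenched; fluorescence read at ex 570/em 615 nm. IC50 from four-parameter fit against pre-quenched and no-inhibitor controls.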

human TREX2 (residues M44-A279), sequence (Q9BQ50 whole entry, the tested form may be a part): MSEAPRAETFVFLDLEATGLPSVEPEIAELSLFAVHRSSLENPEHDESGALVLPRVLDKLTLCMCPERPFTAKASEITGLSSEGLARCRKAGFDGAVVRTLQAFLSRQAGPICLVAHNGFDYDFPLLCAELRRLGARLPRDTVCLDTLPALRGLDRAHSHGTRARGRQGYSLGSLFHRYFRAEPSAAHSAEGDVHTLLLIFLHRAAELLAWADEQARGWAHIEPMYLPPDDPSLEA
full length human TREX1, sequence (Q9NSU2 whole entry): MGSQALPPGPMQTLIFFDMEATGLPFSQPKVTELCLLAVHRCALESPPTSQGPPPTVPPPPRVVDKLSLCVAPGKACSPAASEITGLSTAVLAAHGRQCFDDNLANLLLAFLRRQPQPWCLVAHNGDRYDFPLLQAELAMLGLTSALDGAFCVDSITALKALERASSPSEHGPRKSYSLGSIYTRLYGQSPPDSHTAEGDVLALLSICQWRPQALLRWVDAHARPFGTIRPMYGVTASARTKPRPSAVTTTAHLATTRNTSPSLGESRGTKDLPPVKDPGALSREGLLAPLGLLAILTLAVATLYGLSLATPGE

Take `Cn1c(-c2ccccc2-c2cccnc2)nc(C(=O)Nc2cnoc2)c(O)c1=O` [Example 66, 5-hydroxy-N-(isoxazol-4-yl)-1-methyl-6-oxo-2-(2-(pyridin-3-yl)phenyl)-1,6-dihydropyrimidine-4-carboxamide]: the IC50 at full length human TREX1 lay in the range of 0.1 to 1 µM; in test [1], 10 to 100 µM.
Taken in the same sequence, the figures for `Cn1c(-c2ccccc2-c2ccncc2)nc(C(=O)Nc2cnoc2)c(O)c1=O` [Example 67, 5-hydroxy-N-(isoxazol-4-yl)-1-methyl-6-oxo-2-(2-(pyridin-4-yl)phenyl)-1,6-dihydropyrimidine-4-carboxamide] were 1 to 10 µM and 10 to 100 µM.
For `Cn1c(-c2cc(Br)ccc2OCCO)nc(C(=O)Nc2cnoc2)c(O)c1=O` [Example 70, 2-(5-bromo-2-(2-hydroxyethoxy)phenyl)-5-hydroxy-N-(isoxazol-4-yl)-1-methyl-6-oxo-1,6-dihydropyrimidine-4-carboxamide], in that order: < 0.1 µM and 1 to 10 µM.
`Cn1nc(CCO)c(-c2nc(C(=O)Nc3cnoc3)c(O)c(=O)n2C)n1` [Example 73, 5-hydroxy-2-(5-(2-hydroxyethyl)-2-methyl-2H-1,2,3-triazol-4-yl)-N-(isoxazol-4-yl)-1-methyl-6-oxo-1,6-dihydropyrimidine-4-carboxamide]: the IC50 against full length human TREX1 fell in the range of 0.1 to 1 µM; in test [1], 10 to 100 µM.
As to `Cn1nnc(-c2nc(C(=O)Nc3cnoc3)c(O)c(=O)n2C)c1CCO` [Example 74, 5-hydroxy-2-(5-(2-hydroxyethyl)-1-methyl-1H-1,2,3-triazol-4-yl)-N-(isoxazol-4-yl)-1-methyl-6-oxo-1,6-dihydropyrimidine-4-carboxamide], the IC50 against full length human TREX1 is 1 to 10 µM; in test [1] it was 10 to 100 µM.
For the molecule `Cn1c(-c2ccccc2NCCCO)nc(C(=O)Nc2cnoc2)c(O)c1=O` [Example 75, 5-hydroxy-2-(2-((3-hydroxypropyl)amino)phenyl)-N-(isoxazol-4-yl)-1-methyl-6-oxo-1,6-dihydropyrimidine-4-carboxamide], the results for the 50% inhibitory concentration (IC50) (against full length human TREX1; in test [1]) were > 10 µM and > 100 µM, respectively.
On to `Cn1c(-c2ccccc2N[C@H]2C[C@@H](O)C2)nc(C(=O)Nc2cnoc2)c(O)c1=O` [Example 76, 5-hydroxy-2-(2-(((1s,3s)-3-hydroxycyclobutyl)amino)phenyl)-N-(isoxazol-4-yl)-1-methyl-6-oxo-1,6-dihydropyrimidine-4-carboxamide], for which the concentration for half-maximal inhibition (IC50) at full length human TREX1 was in the range of 0.1 to 1 µM; in test [1] it was 10 to 100 µM.
Turning to `Cn1c(-c2cccc(Br)c2CCO)nc(C(=O)Nc2cnoc2)c(O)c1=O` [Example 78, 2-(3-bromo-2-(2-hydroxyethyl)phenyl)-5-hydroxy-N-(isoxazol-4-yl)-1-methyl-6-oxo-1,6-dihydropyrimidine-4-carboxamide], the IC50 is < 0.1 µM on full length human TREX1 and 1 to 10 µM in test [1].
Taken in the same sequence, the figures for `C[C@H](Cc1ccccc1)c1nc(C(=O)Nc2cnoc2)c(O)c(=O)n1C` [Example 79, (R)-5-hydroxy-N-(isoxazol-4-yl)-1-methyl-6-oxo-2-(1-phenylpropan-2-yl)-1,6-dihydropyrimidine-4-carboxamide] were < 0.1 µM and 1 to 10 µM.
For `C[C@@H](Cc1ccccc1)c1nc(C(=O)Nc2cnoc2)c(O)c(=O)n1C` [Example 80, (S)-5-hydroxy-N-(isoxazol-4-yl)-1-methyl-6-oxo-2-(1-phenylpropan-2-yl)-1,6-dihydropyrimidine-4-carboxamide], in that order: < 0.1 µM and 1 to 10 µM.
As to `Cn1c([C@H]2CCC[C@@H](NC(=O)c3ccc(Cl)c(Cl)c3)C2)nc(C(=O)Nc2cnoc2)c(O)c1=O` [Example 82, 2-((1S,3R)-3-(3,4-dichlorobenzamido)cyclohexyl)-5-hydroxy-N-(isoxazol-4-yl)-1-methyl-6-oxo-1,6-dihydropyrimidine-4-carboxamide], the IC50 on full length human TREX1 lay within 1 to 10 µM; in test [1] it was 10 to 100 µM.
With `C[C@@H]1CC[C@H](c2nc(C(=O)Nc3cnoc3)c(O)c(=O)n2C)CN1C(=O)c1ccc(Cl)c(Cl)c1` [Example 83, 2-((3S,6R)-1-(3,4-dichlorobenzoyl)-6-methylpiperidin-3-yl)-5-hydroxy-N-(isoxazol-4-yl)-1-methyl-6-oxo-1,6-dihydropyrimidine-4-carboxamide], the concentration for half-maximal inhibition (IC50) against full length human TREX1 is 1 to 10 µM; in test [1], 10 to 100 µM.
Take `C[C@H]1CC[C@H](c2nc(C(=O)Nc3cnoc3)c(O)c(=O)n2C)CN1C(=O)c1ccc(Cl)c(Cl)c1` [Example 84, 2-((3S,6S)-1-(3,4-dichlorobenzoyl)-6-methylpiperidin-3-yl)-5-hydroxy-N-(isoxazol-4-yl)-1-methyl-6-oxo-1,6-dihydropyrimidine-4-carboxamide]: the IC50 was < 0.1 µM against full length human TREX1 and 1 to 10 µM in test [1].
On to `Cn1c([C@H]2CCN(C(=O)c3ccc(Cl)cc3)C2)nc(C(=O)Nc2cnoc2)c(O)c1=O` [Example 85, (S)-2-(1-(4-chlorobenzoyl)pyrrolidin-3-yl)-5-hydroxy-N-(isoxazol-4-yl)-1-methyl-6-oxo-1,6-dihydropyrimidine-4-carboxamide], for which the results for the IC50 (against full length human TREX1; in test [1]) were 0.1 to 1 µM and 10 to 100 µM, respectively.
Take `Cn1c([C@@H]2CCN(C(=O)c3ccc(Cl)cc3)C2)nc(C(=O)Nc2cnoc2)c(O)c1=O` [Example 86, (R)-2-(1-(4-chlorobenzoyl)pyrrolidin-3-yl)-5-hydroxy-N-(isoxazol-4-yl)-1-methyl-6-oxo-1,6-dihydropyrimidine-4-carboxamide]: the IC50 against full length human TREX1 is 0.1 to 1 µM; in test [1] it was 10 to 100 µM.
Taken in the same sequence, the figures for `Cn1c(C2CCCN(S(C)(=O)=O)C2)nc(C(=O)Nc2cnoc2)c(O)c1=O` (stereo not shown) [Example 87, 5-hydroxy-N-(isoxazol-4-yl)-1-methyl-2-(1-(methylsulfonyl)piperidin-3-yl)-6-oxo-1,6-dihydropyrimidine-4-carboxamide] were 1 to 10 µM and 10 to 100 µM.
With `Cn1c([C@H]2CCCN(C(=O)c3ccc(F)c(Cl)c3)C2)nc(C(=O)Nc2cnoc2)c(O)c1=O` [Example 88, (S)-2-(1-(3-chloro-4-fluorobenzoyl)piperidin-3-yl)-5-hydroxy-N-(isoxazol-4-yl)-1-methyl-6-oxo-1,6-dihydropyrimidine-4-carboxamide], the 50% inhibitory concentration (IC50) is < 0.1 µM against full length human TREX1 and 1 to 10 µM in test [1].
For the molecule `Cn1c([C@H]2CCCN(C(=O)Cc3ccc(F)c(F)c3)C2)nc(C(=O)Nc2cnoc2)c(O)c1=O` [Example 91, (S)-2-(1-(2-(3,4-difluorophenyl)acetyl)piperidin-3-yl)-5-hydroxy-N-(isoxazol-4-yl)-1-methyl-6-oxo-1,6-dihydropyrimidine-4-carboxamide], the half-inhibitory concentration (IC50) lay in the range of 0.1 to 1 µM on full length human TREX1 and 10 to 100 µM in test [1].
Consider `Cn1c([C@H]2CCCN(S(=O)(=O)c3ccc(Cl)c(Cl)c3)C2)nc(C(=O)Nc2cnoc2)c(O)c1=O` [Example 92, (S)-2-(1-((3,4-dichlorophenyl)sulfonyl)piperidin-3-yl)-5-hydroxy-N-(isoxazol-4-yl)-1-methyl-6-oxo-1,6-dihydropyrimidine-4-carboxamide], for which the IC50 on full length human TREX1 was 0.1 to 1 µM; in test [1] it was 10 to 100 µM.
For `Cn1c(C2CCCN(C(=O)c3cccnc3)C2)nc(C(=O)Nc2cnoc2)c(O)c1=O` (stereo not shown) [Example 93, 5-hydroxy-N-(isoxazol-4-yl)-1-methyl-2-(1-nicotinoylpiperidin-3-yl)-6-oxo-1,6-dihydropyrimidine-4-carboxamide], the 50% inhibitory concentration (IC50) against full length human TREX1 was 0.1 to 1 µM; in test [1] it was 1 to 10 µM.
For `Cn1c(C2CCCN(C(=O)c3cn[nH]c3)C2)nc(C(=O)Nc2cnoc2)c(O)c1=O` (stereo not shown) [Example 94, 2-(1-(1H-pyrazole-4-carbonyl)piperidin-3-yl)-5-hydroxy-N-(isoxazol-4-yl)-1-methyl-6-oxo-1,6-dihydropyrimidine-4-carboxamide], in that order: 0.1 to 1 µM and 10 to 100 µM.
On to `CC(C)CNC(=O)N1CCCC(c2nc(C(=O)Nc3cnoc3)c(O)c(=O)n2C)C1` (stereo not shown) [Example 95], for which the IC50 against full length human TREX1 was in the range of 0.1 to 1 µM; in test [1] it was 10 to 100 µM.
For `CC(C)C(=O)N1CCCC(c2nc(C(=O)Nc3cnoc3)c(O)c(=O)n2C)C1` (stereo not shown) [Example 96, 5-hydroxy-2-(1-isobutyrylpiperidin-3-yl)-N-(isoxazol-4-yl)-1-methyl-6-oxo-1,6-dihydropyrimidine-4-carboxamide], in that order: 0.1 to 1 µM and 10 to 100 µM.
Turning to `Cn1c([C@H]2CCCN(C(=O)c3ccc(Cl)c(Cl)c3)C2)nc(C(=O)Nc2cnoc2)c(O)c1=O` [Example 97, (S)-2-(1-(3,4-dichlorobenzoyl)piperidin-3-yl)-5-hydroxy-N-(isoxazol-4-yl)-1-methyl-6-oxo-1,6-dihydropyrimidine-4-carboxamide], the IC50 was < 0.1 µM against full length human TREX1 and < 1 µM in test [1].
For `Cn1c(C2CCCN(CC(F)(F)F)C2)nc(C(=O)Nc2cnoc2)c(O)c1=O` (stereo not shown) [Example 98, 5-hydroxy-N-(isoxazol-4-yl)-1-methyl-6-oxo-2-(1-(2,2,2-trifluoroethyl)piperidin-3-yl)-1,6-dihydropyrimidine-4-carboxamide], in that order: 0.1 to 1 µM and 10 to 100 µM.
Consider `Cn1c(N2CCN(C(=O)c3ccccc3)CC2)nc(C(=O)Nc2cnoc2)c(O)c1=O` [Example 100, 2-(4-benzoylpiperazin-1-yl)-5-hydroxy-N-(isoxazol-4-yl)-1-methyl-6-oxo-1,6-dihydropyrimidine-4-carboxamide], for which the IC50 at full length human TREX1 was in the range of 0.1 to 1 µM; in test [1] it was 10 to 100 µM.
